In patent publication US20250134874A1, “PHARMACEUTICAL FORMULATIONS COMPRISING 3-({[(4R)-7-{METHYL[4-(PROPAN-2-YL)PHENYL]AMINO}-3,4-DIHYDRO-2H-1-BENZOPYRAN-4-YL]METHYL}AMINO)PYRIDINE-4-CARBOXYLIC ACID” (TACHYON THERAPEUTICS, INC., priority 2021, published 2025):

Test system: 301 cancer cell lines from different tumor types (OncoPanel; HD Biosciences)
Experiment: 2D cell viability inhibition assay (CellTiter-Glo) in cancer cell line panel
Assay type: cell-based
Parameters: key to AUC: AUC as fraction of the no-inhibition area (dose range × 0–100 % of control)
Conditions: for Emax: in %
Protocol: In a larger screening study, compound 1 was evaluated across a broad cancer cell line panel (OncoPanel; HD Biosciences) composed of 301 cancer cell lines from different tumor types.
2D cell viability inhibition assays were performed in multiwell plates seeded with cells from the panel. After seeding, the plates were cultured overnight in a humidified incubator at 37° C. to promote adherence. Assays were initiated in individual wells by adding either DMSO as a vehicle control, growth media as a blank, or serially diluted compound 1 (10 μM to 0.0005 μM with 1:3 serial dilution). Cultures were incubated for 168 hours after which the number of viable cells in each test well was assessed using the CellTiter-Glo® Luminescent Cell Viability Assay. Luminescence readouts were performed using an EnVision® Multilabel Reader and the compound 1 readouts were normalized to the DMSO control readouts, expressed as a percent of the control. Outliers were flagged out by visual inspection. Percent of control was plotted against the corresponding compound 1 concentration and the absolute IC50 value was determined using four-parameter logistic non-linear regression as the concentration where inhibition was 50% of the control. For maximum inhibition <50%, the absolute IC50 was reported as >10. In addition to EC50 and IC50, AUC was determined and was normalized to the area corresponding to theoretical no-inhibition (the rectangular area defined by the compound dose range and 0 to 100 in y). Emax was recorded as the minimum in y with the compound dose range. For those cell lines where Emax>40, EC50 was manually set to 10 μM. A hierarchical clustering algorithm based on Euclidean distance between the standardized input values and “Ward.D” method as implemented in R hclust function was used to visualize the compound 1 cellular potency data. The sensitive/moderate/resistant calls for each cell line was determined by visually inspecting the resulting clustering dendrogram. All the analyses were done in R Core Team.

[1] = Homo sapiens, 143B, 143B cell line
[2] = Homo sapiens, 647-V, 647V cell line
[3] = Homo sapiens, 786-0, 7860 cell line
[4] = Homo sapiens, A101D, A101D cell line
[5] = Homo sapiens, A549, A549 cell line
[6] = Homo sapiens, A2058, A2058 cell line
[7] = Homo sapiens, A2780, A2780 cell line
[8] = Homo sapiens, A-375, A375 cell line
[9] = Homo sapiens, ACHN, ACHN cell line
[10] = Homo sapiens, AGS, AGS cell line
[11] = Homo sapiens, ASPC1, ASPC1 cell line
[12] = Homo sapiens, AZ-521, AZ521 cell line
[13] = Homo sapiens, BFTC-905, BFTC905 cell line
[14] = Homo sapiens, BT-549, BT549 cell line
[15] = Homo sapiens, BXPC-3, BXPC3 cell line
[16] = Homo sapiens, C32, C32 cell line
[17] = Homo sapiens, CAKI-1, CAKI1 cell line
[18] = Homo sapiens, CFPAC-1, CFPAC1 cell line
[19] = Homo sapiens, CHL-1, CHL1 cell line
[20] = Homo sapiens, COLO 205, COLO205 cell line
[21] = Homo sapiens, COLO-320-HSR, COLO320HSR cell line
[22] = Homo sapiens, COLO-679, COLO679 cell line
[23] = Homo sapiens, COLO-680N, COLO680N cell line
[24] = Homo sapiens, COLO-741, COLO741 cell line
[25] = Homo sapiens, COR-L279, CORL279 cell line

CC(C)c1ccc(N(C)c2ccc3c(c2)OCC[C@H]3CNc2cnccc2C(=O)O)cc1 [Compound 1, 3-({[(4R)-7-{methyl[4-(propan-2-yl)phenyl]amino}-3,4-dihydro-2H-1-benzopyran-4-yl]methyl}amino)pyridine-4-carboxylic acid]
AUC (HCC1599 cell line): 0.4639 | Emax (HCC1599 cell line): 32.7 | AUC (HCC1806 cell line): 0.5325 | Emax (HCC1806 cell line): 36.87 | AUC (HCC1937, breast, ductal carcinoma, 168 hours): 0.9094 | AUC (HCC1954 cell line): 0.5912 | AUC (HCC2935 cell line): 0.6922 | AUC (HCT15 cell line): 0.1838 | Emax (HCT15 cell line): 4.541 | AUC (HCT116 cell line): 0.5356 | AUC (HEL cell line): 0.5268 | Emax (HEL cell line): 28.89 | AUC (HEP3B217 cell line): 0.6448 | IC50 (HEP3B217 cell line): 129 nM | AUC (HEPG2 cell line): 0.6086 | AUC (HL60 cell line): 0.3703 | Emax (HL60 cell line): 9.446 | AUC (HLE cell line): 0.3839 | Emax (HLE cell line): 7.876 | AUC (HLF cell line): 0.4657 | Emax (HLF cell line): 18.25 | EC50 (HLF, HLF cell line): 11.5 nM | IC50 (HLF, HLF cell line): 18 nM | AUC (HMCB cell line): 0.5041 | Emax (HMCB cell line): 32.25 | AUC (HPAC cell line): 0.3965 | AUC (HS294T cell line): 0.6005 | AUC (HS578T cell line): 0.5373 | Emax (HS578T cell line): 32.75 | AUC (HS688AT, skin, NS, 168 hours): 1.105 | AUC (HS695T, skin, NS, 168 hours): 0.9238 | AUC (HS739T, breast, NS, 168 hours): 0.8686 | AUC (HS839T, skin, NS, 168 hours): 1.097 | AUC (HS852T, skin, NS, 168 hours): 0.883 | AUC (HSC2 cell line): 0.4511 | Emax (HSC2 cell line): 26.01 | AUC (HSC3 cell line): 0.6313 | AUC (HSC4 cell line): 0.4347 | Emax (HSC4 cell line): 23.28 | AUC (HT29 cell line): 0.5741 | AUC (HT55 cell line): 0.4704 | Emax (HT55 cell line): 22.172 | AUC (HT144, skin, NS, 168 hours): 0.8912 | AUC (HT1080 cell line): 0.5438 | Emax (HT1080 cell line): 29.74 | AUC (HT1376 cell line): 0.5519 | AUC (HUH1 cell line): 0.4145 | Emax (HUH1 cell line): 11.68 | AUC (HUH7 cell line): 0.3926 | Emax (HUH7 cell line): 7.054 | AUC (HUH28, biliary tract, NS, 168 hours): 0.9862 | AUC (HUTU80 cell line): 0.3016 | EC50 [1]: 13.9 nM | IC50 [1]: 14.4 nM | EC50 [2]: 11.2 nM | IC50 [2]: 12.2 nM | EC50 [3]: 11.7 nM | IC50 [3]: 22.5 nM | EC50 [4]: 6.91 nM | IC50 [4]: 11 nM | IC50 (Homo sapiens, A204, 168 h, A204, soft tissue, NS, 168 hours): > 10000 nM | EC50 [5]: 18.5 nM | IC50 [5]: 32.4 nM | EC50 [6]: 28.1 nM | IC50 [6]: 46.8 nM | EC50 [7]: 2.1 nM | IC50 [7]: 2.14 nM | EC50 [8]: 7.62 nM | IC50 [8]: 10.6 nM | EC50 [9]: 30.3 nM | IC50 [9]: 34.7 nM | EC50 [10]: 5.18 nM | IC50 [10]: 6.19 nM | EC50 [11]: 18.9 nM | IC50 [11]: 66.8 nM | EC50 [12]: 3.84 nM | IC50 [12]: 4.19 nM | EC50 [13]: 8.93 nM | IC50 [13]: 9.91 nM | IC50 (Homo sapiens, BT-20, 168 h, BT20, breast, ductal carcinoma, 168 hours): > 10000 nM | IC50 (Homo sapiens, BT-474, 168 h, BT474, breast, ductal carcinoma, 168 hours): > 10000 nM | EC50 [14]: 5.84 nM | IC50 [14]: 9.98 nM | EC50 [15]: 8.45 nM | IC50 [15]: 19.4 nM | IC50 (Homo sapiens, C2BBe1, 168 h, C2BBE1, large intestine, adenocarcinoma, 168 hours): > 10000 nM | EC50 [16]: 5.18 nM | IC50 [16]: 5.36 nM | EC50 [17]: ≥ 10000 nM | IC50 [17]: 4.43 nM | IC50 (Homo sapiens, CAL-27, 168 h, CAL27, upper aerodigestive tract, squamous cell carcinoma, 168 hours): > 10000 nM | IC50 (Homo sapiens, CAPAN-1, CAPAN1 cell line): 116 nM | IC50 (Homo sapiens, CCF-STTG1, 168 h, CCFSTTG1, central nervous system, astrocytoma, 168 hours): > 10000 nM | EC50 [18]: 11.3 nM | IC50 [18]: 15.3 nM | EC50 [19]: 4.68 nM | IC50 [19]: 6.08 nM | EC50 [20]: 5.97 nM | IC50 [20]: 11.5 nM | EC50 [21]: 4.46 nM | IC50 [21]: 4.61 nM | EC50 [22]: 2340 nM | IC50 [22]: 2040 nM | EC50 [23]: 4.79 nM | IC50 [23]: 6.97 nM | EC50 [24]: 6.86 nM | IC50 [24]: 10.4 nM | IC50 (Homo sapiens, COLO-829, COLO829 cell line): > 10000 nM | EC50 [25]: 4.23 nM | IC50 [25]: 4.34 nM | IC50 (Homo sapiens, Calu-1, 168 h, CALU1, lung, squamous cell carcinoma, 168 hours): > 10000 nM | IC50 (Homo sapiens, Calu-3, 168 h, CALU3, lung, adenocarcinoma, 168 hours): > 10000 nM | EC50 (Homo sapiens, Calu-6, CALU6 cell line): 11.5 nM
